From patent US20120269882A1, “Brain Delivery of Insulin to Treat Systemic Inflammation” (MOUNT SINAI SCHOOL OF MEDICINE Office of Technology & …, priority 2009, published 2012)
“Also recorded” adds a separate entry of the source.

Columns and labels:
[1] = system: LPS induced pro-inflammatory proteins in lung; experiment: Western blot of lung tissue lysates after LPS injection and ICV infusion; assay type: in vivo, mice; settings: LPS 1 mg/kg i.p., ICV infusion 4 h, vs vehicle
Procedure: (§1) FIG. 1A-B: FIG. 1A, Experimental protocol for high fat diet feeding and intracerebroventricular (ICV) cannula implantation. 4 week old male C57B1/6 mice were fed a high fat diet for 4 weeks and ICV cannulae were implanted. After 5 days recovery from surgery infusion studies were performed. FIG. 1B, Protocol for infusion studies. Mice were injected with lipopolysaccharides (LPS) (1 mg/kg, i.p.) and randomly assigned to receive ICV insulin or vehicle infusions for 4 hours until necropsy.
FIG. 5: ICV insulin treatment reduces LPS induced pro-inflammatory proteins in lung. Quantification of Western blot analyses from lung tissue lysates expressed as fold change to vehicle and normalized over α-tubulin. Activation of the transcription factors Stat1 is decreased by central insulin. The level of the pro-inflammatory cytokine IL-1β is reduced in the ICV insulin infused animals. n=6 per group, *p<0.05.
Male C57B1/6 mice were weaned at 4 weeks of age and fed a High Fat Diet (HFD) for 35 days to induce insulin resistance. […]
To investigate whether central insulin reduces cytokine signaling in peripheral tissues, the expression and phosphorylation of signal transducer and activator of transcription (Stat) was measured in lung (FIG. 4), spleen (FIG. 5) and liver (FIG. 6) tissue by western blot. […]

[2] = system: LPS induced pro-inflammatory proteins in spleen; experiment: Western blot of spleen tissue lysates after LPS injection and ICV infusion; assay type: in vivo, mice; settings: LPS 1 mg/kg i.p., ICV infusion 4 h, vs vehicle
Procedure: as §1
FIG. 4: ICV insulin treatment reduces LPS induced pro-inflammatory proteins in spleen. Quantification of Western blot analyses from spleen tissue lysates expressed as fold change to vehicle and normalized over β-actin. Activation of the transcription factors Stat1 and Stat3 is decreased. The pro-inflammatory markers IL-1β, COX2 and IKK-β are reduced in the ICV insulin infused animals. n=6 per group, *p<0.05.
(§2) Male C57B1/6 mice were weaned at 4 weeks of age and fed a High Fat Diet (HFD) for 35 days to induce insulin resistance. After 30 days of HFD feeding, the mice underwent stereotactic surgery to implant intracerebroventricular (ICV) guide cannula (see, FIG. 2 for an illustration of cannula placement) followed by a 5-day recovery period until infusion experiments were carried out. On the day of the experiment, animals were placed in individual cages, received an intraperitoneal (i.p.) injection of E. coli (LPS) (1 mg/kg) and were continuously ICV infused using a micro infusion pump with Artificial CerebroSpinal Fluid (ACSF) or Insulin (0.005 mU/h) for 4 hours, yielding a total dose of 0.020 mU. See FIG. 1A-B for a graphical illustration of the protocol.
(§3) To investigate whether central insulin reduces cytokine signaling in peripheral tissues, the expression and phosphorylation of signal transducer and activator of transcription (Stat) was measured in lung (FIG. 4), spleen (FIG. 5) and liver (FIG. 6) tissue by western blot. […] Likewise, the activation of Stat3 which plays a central role in signaling of IL-6 and related cytokines was decreased in peripheral tissues after ICV insulin infusion. Lower protein levels of the pro-inflammatory cytokine IL-1β were detectable in the insulin-infused animals in liver, spleen and lung tissue. Lower IL-1β levels in lung tissue has been associated with improvement of acute lung injury, which is a clinically important sequelae in sepsis.

[3] = system: LPS-treated mice; experiment: Survival in a mouse model of sepsis (LPS 5 mg/kg, i.p.); assay type: in vivo; settings: high fat diet C57B16 mice, ICV infusion up to 5 days, vs vehicle, assessed daily
Procedure: FIG. 9: ICV insulin improves survival in a mouse model of sepsis. 4 weeks old C57B16 mice were fed high fat diet for 4 weeks and ICV cannulas were implanted. Mice were injected with LPS (5 mg/kg, ip) and randomly assigned to receive ICV insulin or vehicle infusions for up to 5 days (n=11 per group). Survival was assessed daily as depicted.
In view of the potent anti-inflammatory effects mediated by insulin when administered to the CNS, studies were undertaken to determine whether administration of insulin to the CNS would protect mice from death in a sepsis model. 4-week old C57B16 mice were fed high fat diet for 4 weeks and ICV cannulas were implanted as described above. Mice were injected with LPS (5 mg/kg, i.p.) and randomly assigned to receive ICV insulin or vehicle infusions for up to 5 days (n=11 per group). Survival was assessed daily and results were plotted, see, e.g., FIG. 9.

[4] = system: signal transducer and activator of transcription (Stat); experiment: Stat expression and phosphorylation in peripheral tissues (lung, spleen, liver) by western blot; assay type: in vivo, mice; settings: after ICV insulin infusion
Procedure: as §2
as §3, with “Lower IL-1β levels in lung tissue has been associated with improvement of acute lung injury, which is a clinically important sequelae in sepsis.” left out

[5] = system: LPS induced pro-inflammatory cytokine levels; experiment: Serum TNF-α and IL-6 by ELISA after LPS injection and ICV infusion; assay type: in vivo; settings: high fat diet C57B1/6 mice, LPS 1 mg/kg i.p., ICV insulin 0.02 mU/h for 4 h vs vehicle, p<0.05
Procedure: as §1
FIG. 3: ICV insulin treatment reduces LPS induced pro-inflammatory cytokine levels. Mice were injected with LPS (1mg/kg, i.p.) infused with central insulin (0.02 mU/h) or vehicle for 4 h and sacrificed. Serum concentrations of TNF-α and IL-6 were determined by ELISA. n=12-14 per group, *p<0.05.
Male C57B1/6 mice were weaned at 4 weeks of age and fed a High Fat Diet (HFD) for 35 days to induce insulin resistance. After 30 days of HFD feeding, the mice underwent stereotactic surgery to implant intracerebroventricular (ICV) guide cannula (see, FIG. 2 for an illustration of cannula placement) followed by a 5-day recovery period until infusion experiments were carried out. […]

[6] = system: LPS induced pro-inflammatory proteins in liver; experiment: Western blot of liver tissue lysates after LPS injection and ICV infusion; assay type: in vivo, mice; settings: LPS 1 mg/kg i.p., vs vehicle
Procedure: Quantification of western blot analyses from liver tissue lysates expressed as fold change to vehicle and normalized over β-actin.
Quantification of western blot analyses from liver tissue lysates expressed as fold change to vehicle and normalized over β-actin. Mice were injected with LPS (1 mg/kg, i.p.) and randomly assigned to receive ICV glucose (4 mM) or vehicle infusions for 4 hours until necropsy.

[7] = ICV insulin 4 h, normalized over β-actin

Compound | IL-1β protein in lung [1] | Activation of Stat1 in lung ([1]; normalized over α-tubulin) | COX2 protein in spleen [2] | IKK-β protein in spleen [2] | IL-1β protein in spleen [2] | Activation of Stat1 in spleen ([2]; normalized over β-actin) | Activation of Stat3 in spleen ([2]; normalized over β-actin) | Survival [3] | Activation of Stat3 in peripheral tissues [4] | LPS induced phosphorylation of Stat1 ([4]; measured in lung, spleen and liver) | Serum concentration of IL-6 [5] | Serum concentration of TNF-α [5] | IL-1β protein in liver ([6]; ICV insulin 4 h) | Activation of Stat1 in liver [6, 7] | Activation of Stat3 in liver [6, 7] | Activation of Stat1 in liver ([6]; ICV glucose 4 mM for 4 hours) | Activation of Stat3 in liver ([6]; ICV glucose 4 mM for 4 hours) | IKK-β levels in liver (NF-κB signaling) ([6]; ICV glucose 4 mM for 4 hours) | PDI expression in liver (marker for ER stress) ([6]; ICV glucose 4 mM for 4 hours)
insulin | reduced; also recorded: Lower | decreased | reduced | reduced | reduced; also recorded: Lower | decreased | decreased | significantly (p=0.0194) improved; also recorded: significantly improve the survival | decreased | marked inhibition | reduces | reduces | reduced; also recorded: Lower | decreased | decreased |  |  |  | 
O=C[C@H](O)[C@@H](O)[C@H](O)[C@H](O)CO [glucose] |  |  |  |  |  |  |  |  |  |  |  |  |  |  |  | significantly increased | significantly increased | Higher levels | Higher levels; also recorded: elevated
